Source: patent US9232796B2, “Herbicidal compositions comprising 4-amino-3-chloro-5-fluoro-6-(4-chloro-2-fluoro-3-methoxyphenyl) pyridine-2-carboxylic acid or a derivative thereof and acetyl-CoA carboxylase (ACCase) inhibitors” (DOW AGROSCIENCES LLC, priority 2012, dated 2016)

What was measured:
ECHCG [1] = experiment: Example VI in-water applied ternary mixtures, greenhouse, transplanted paddy rice weeds; assay type: in vivo, Echinochloa crus-galli (L.) Beauv.
Procedure: (§1) Weed seeds or nutlets of the desired test plant species were planted in puddled soil (mud) prepared by mixing a shredded, non-sterilized mineral soil (50.5 percent silt, 25.5 percent clay, and 24 percent sand, with a pH of about 7.6 and an organic matter content of about 2.9 percent) and water at a 1:1 volumetric ratio. The prepared mud was dispensed in 365 mL aliquots into 16-ounce (oz.) non-perforated plastic pots with a surface area of 86.59 square centimeters (cm^2) leaving a headspace of 3 centimeters (cm) in each pot. Mud was allowed to dry overnight prior to planting or transplanting. Rice seeds were planted in Sun Gro MetroMix® 306 planting mixture, which typically has a pH of 6.0 to 6.8 and an organic matter content of about 30 percent, in plastic plug trays. Seedlings at the second or third leaf stage of growth were transplanted into 860 mL of mud contained in 32-oz. non-perforated plastic pots with a surface area of 86.59 cm^2 4 days prior to herbicide application. The paddy was created by filling the headspace of the pots with 2.5 to 3 cm of water. When required to ensure good germination and healthy plants, a fungicide treatment and/or other chemical or physical treatment was applied. The plants were grown for 4-22 days in a greenhouse with an approximate 14 hr. photoperiod which was maintained at about 29° C. during the day and 26° C. during the night. Nutrients were added as Osmocote® (19:6:12, N:P:K+minor nutrients) at 2 g per 16-oz. pot and 4 g per 32-oz. pot. Water was added on a regular basis to maintain the paddy flood, and supplemental lighting was provided with overhead metal halide 1000-Watt lamps as necessary. The plants were employed for testing when they reached the first through fourth true leaf stage.
(§2) Treatments consisted of the benzyl ester of 4-amino-3-chloro-5-fluoro-6-(4-chloro-2-fluoro-3-methoxy-phenyl)pyridine-2-carboxylic acid (Compound A), formulated as an SC (suspension concentrate), an ACCase inhibitor herbicide, and a third herbicidal component, each applied alone and in ternary combination. Forms of compound A were applied on an acid equivalent basis.
(§3) The ACCase inhibitor component was applied on an active ingredient basis and included cyhalofop-R-butyl formulated as Clincher® G and metamifop formulated as Metamifop EC. Other herbicidal components were applied on an active ingredient or acid equivalent basis depending on the compound and included penoxsulam formulated as Grasp® SC, bentazon sodium formulated as Basagran®, triclopyr […] (TEA) salt formulated as Grandstand® R, benzobicyclon formulated as Benzobicyclon, benfuresate formulated as Full Slot® WG, pyraclonil formulated as Pyraclon® Flowable, mefenacet (technical grade material), and pretilachlor (technical grade material).
(§4) Treatment requirements for each compound or herbicidal component were calculated based upon the rates being tested, the concentration of active ingredient or acid equivalent in the formulation, an application volume of 1 mL per component per pot, and an application area of 86.59 cm^2 per pot.
(§5) For formulated compounds, a measured amount was placed in an individual 100 or 200 mL glass vial and was dissolved in a volume of 1.25% (v/v) Agri-Dex® crop oil concentrate to obtain application solutions.
(§6) For technical grade compounds, a weighed amount was placed in an individual 100 to 200 mL glass vial and was dissolved in a volume of acetone to obtain concentrated stock solutions.
(§7) Applications were made by injecting with a pipetter appropriate amounts of the application solutions, into the aqueous layer of the paddy. Control plants were treated in the same manner with the solvent blank. Applications were made so that all treated plant material received the same concentrations of acetone and crop oil concentrate.
(§8) The treated plants and control plants were placed in a greenhouse as described above and water was added as needed to maintain a paddy flood. […]

FIMMI = experiment: as above; assay type: in vivo, Fimbristylis miliacea (L.) Vahl
Procedure: as §1, §2, §3, §4, §5, §6, §7, §8

IPOHE = experiment: Example V (second) postemergence foliar-applied ternary mixtures, greenhouse, direct seeded rice weeds; assay type: in vivo, Ipomoea hederacea Jacq.
Procedure: (§9) The treated plants and control plants were placed in a greenhouse as described above and watered by sub-irrigation to prevent wash-off of the test compounds. After approximately 3 weeks, the condition of the test plants as compared with that of the untreated plants was determined visually and scored on a scale of 0 to 100 percent where 0 corresponds to no injury or growth inhibition and 100 corresponds to complete kill.
Colby's equation was used to determine the herbicidal effects expected from the mixtures (Colby, S. R. 1967. Calculation of the synergistic and antagonistic response of herbicide combinations. Weeds 15:20-22.).
The following equation was used to calculate the expected activity of mixtures containing three active ingredients, A, B, and C: Expected=A+B+C−((A×B+A×C+B×C)/100)+(A×B×C/10000)

ECHCG [2] = experiment: as above; assay type: in vivo, Echinochloa crus-galli (L.) Beauv.; conditions: 200 gai/ha
Description: Seeds or nutlets of the desired test plant species were planted in a soil matrix prepared by mixing a sandy loam or loam soil (e.g., 32 percent silt, 23 percent clay, and 45 percent sand, with a pH of about 6.5 and an organic matter content of about 1.9 percent) and calcareous grit in an 80 to 20 ratio. The soil matrix was contained in plastic pots with a volume of 1 quart and a surface area of 83.6 square centimeters (cm^2). When required to ensure good germination and healthy plants, a fungicide treatment and/or other chemical or physical treatment was applied. The plants were grown for 8-22 days in a greenhouse with an approximate 14 hr. photoperiod which was maintained at about 29° C. during the day and 26° C. during the night. Nutrients (Peters Excel® 15-5-15 5-Ca 2-Mg and iron chelate) were applied in the irrigation solution as needed and water was added on a regular basis. Supplemental lighting was provided with overhead metal halide 1000-Watt lamps as necessary. The plants were employed for testing when they reached the first through fourth true leaf stage.
as §2, with “inhibitor,” for “inhibitor herbicide,”
The ACCase inhibitor component was applied on an active ingredient basis and included cyhalofop-R-butyl formulated as Clincher® SF, fenoxaprop-p-ethyl formulated as RiceStar® HT, and profoxydim formulated as Aura® 20EC. Other herbicidal components were applied on an active ingredient or acid equivalent basis depending on the compound and included penoxsulam formulated as Grasp® SC, bentazon sodium formulated as Basagran®, triclopyr […] (TEA) salt formulated as Grandstand® R, bispyribac sodium formulated as Regiment® 80WP, imazamox ammonium formulated as Beyond®, benzobicyclon, quinclorac formulated as Facet® 75DF, glyphosate dimethylammonium (DMA) salt formulated as Durango® DMA, glufosinate ammonium formulated as Ignite® 280, fentrazamide formulated as an emulsifiable concentrate (EC), propyrisulfuron formulated as Zeta One®, and indanofan (technical grade material).
(§10) Treatment requirements were calculated based upon the rates being tested, the concentration of active ingredient or acid equivalent in the formulation, and a 12 mL application volume at a rate of 187 L/ha.
(§11) For treatments comprised of formulated compounds, measured amounts of compounds were placed individually in 25 mL glass vials and diluted in a volume of 1.25% (v/v) Agri-Dex® crop oil concentrate to obtain 12× stock solutions. […] Application solutions were prepared by adding an appropriate amount of each stock solution (e.g., 1 mL) and diluted to the appropriate final concentrations with the addition of 9 mL of an aqueous mixture of 1.25% (v/v) crop oil concentrate so that the final spray solutions contained 1.25% (v/v) crop oil concentrate.
As required, additional water and/or 97:3 v/v acetone/DMSO was added to individual application solutions so that the final acetone and DMSO concentrations of the application solutions being compared were 8.1% and 0.25%, respectively.
All stock solutions and applications solutions were visually inspected for compound compatibility prior to application. Spray solutions were applied to the plant material with an overhead Mandel track sprayer equipped with a 8002E nozzles calibrated to deliver 187 L/ha over an application area of 0.503 m^2 at a spray height of 18 inches (46 cm) above average plant canopy height. Control plants were sprayed in the same manner with the solvent blank.
The treated plants and control plants were placed in a greenhouse as described above and watered by sub-irrigation to prevent wash-off of the test compounds. […]

CYPIR = experiment: Example I postemergence foliar-applied, greenhouse, direct seeded rice weeds; assay type: in vivo, Cyperus iria L.
Description: Seeds or nutlets of the desired test plant species were planted in a soil matrix prepared by mixing a loam or sandy loam soil (e.g., 28.6 percent silt, 18.8 percent clay, and 52.6 percent sand, with a pH of about 5.8 and an organic matter content of about 1.8 percent) and calcareous grit in an 80 to 20 ratio. The soil matrix was contained in plastic pots with a volume of 1 quart and a surface area of 83.6 square centimeters (cm^2). When required to ensure good germination and healthy plants, a fungicide treatment and/or other chemical or physical treatment was applied. The plants were grown for 8-22 days in a greenhouse with an approximate 14 hr. photoperiod which was maintained at about 29° C. during the day and 26° C. during the night. Nutrients (Peters Excel® 15-5-15 5-Ca 2-Mg and iron chelate) were applied in the irrigation solution as needed and water was added on a regular basis. Supplemental lighting was provided with overhead metal halide 1000-Watt lamps as necessary. The plants were employed for testing when they reached the first through fourth true leaf stage.
Treatments consisted of the acid or esters of 4-amino-3-chloro-5-fluoro-6-(4-chloro-2-fluoro-3-methoxy-phenyl)pyridine-2-carboxylic acid (Compound A), each formulated as an SC (suspension concentrate), and various herbicidal components alone and in combination.
Other herbicidal components were applied on an acid equivalent (ae) or active ingredient (ai) basis and included acetyl coA carboxylase (ACCase)-inhibiting herbicides (cyclohexanedione and aryloxyphenoxypropionate chemical classes) cyhalofop-butyl formulated as Clincher® SF (285 gr ai/L EC), diclofop-methyl formulated as Hoelon® 3EC, fenoxaprop-p-ethyl+isoxadifen-ethyl formulated as RiceStar® HT (0.58 lb./gal EC), fenoxaprop-p-ethyl+mefenpyr diethyl formulated as Puma® IEC, metamifop formulated as Metamifop EC, haloxyfop-methyl formulated as Gallant Super®, fluazifop-p-butyl formulated as Fusilade® DX, quizalofop-p-ethyl formulated as Assure® II, profoxydim formulated as Aura® 20EC, clethodim applied as Intensity®, sethoxydim formulated as Poast®, and tralkoxydim formulated as Achieve®.
as §10
as §11, with “crop oil concentrated to obtain” for “crop oil concentrate to obtain”, “addition of 10 mL of” for “addition of 9 mL of”, “solutions contained 1.25+/−0.05% (v/v) crop” for “solutions contained 1.25% (v/v) crop”
All stock solutions and applications solutions were visually inspected for compound compatibility prior to application. Spray solutions were applied to the plant material with an overhead Mandel track sprayer equipped with a 8002E nozzles calibrated to deliver 187 L/ha over an application area of 0.503 m^2 at a spray height of 18 to 20 inches (46 to 50 cm) above average plant canopy height. Control plants were sprayed in the same manner with the solvent blank.
as §9, with “kill. […]” for “kill.”

CYPRO = experiment: Example VI in-water applied ternary mixtures, greenhouse, transplanted paddy rice weeds; assay type: in vivo, Cyperus rotundus L.; conditions: 21 DAA
Procedure: as §1, §2, §3, §4, §5, §6, §7, §8

## CCS(=O)(=O)Oc1ccc2c(c1)C(C)(C)CO2 [Benfuresate]
ECHCG [1]; 150 gai/ha
  Visual Weed Control (%) - 21 DAA ECHCG Obs: 0%

## CC(C)N1C(=O)c2ccccc2NS1(=O)=O [Bentazon Sodium]
FIMMI; 210 gae/ha, first set
  Visual Weed Control (%) - 21 DAA FIMMI Obs: 17%
FIMMI; 420 gae/ha, second set
  Visual Weed Control (%) - 21 DAA FIMMI Obs: 30%
ECHCG [1]; 210 gae/ha, first set
  Visual Weed Control (%) - 21 DAA ECHCG Obs: 0%
ECHCG [1]; 420 gae/ha, second set
  Visual Weed Control (%) - 21 DAA ECHCG Obs: 15%

## CC(C)N1C(=O)c2ccccc2NS1(=O)=O [Bentazon sodium]
IPOHE; 420 gae/ha, lower sub-table
  Visual Weed Control (%) - 21 DAA IPOHE Obs: 75%
IPOHE; 420 gae/ha, upper sub-table
  Visual Weed Control (%) - 21 DAA IPOHE Obs: 53%

## CS(=O)(=O)c1ccc(C(=O)C2=C(Sc3ccccc3)C3CCC(C3)C2=O)c(Cl)c1 (stereo not shown) [Benzobicyclon]
IPOHE; 200 gai/ha
  Visual Weed Control (%) - 21 DAA IPOHE Obs: 55%
ECHCG [2]
  Visual Weed Control (%) - 21 DAA ECHCG Obs: 0%

## COC(=O)C(C)Oc1ccc(Oc2ccc(Cl)cc2Cl)cc1 (stereo not shown) [Diclofop-methyl, methyl 2-[4-(2,4-dichlorophenoxy)phenoxy]propanoate]
CYPIR; 280 gai/ha
  Visual Weed Control (%) - 22 DAA CYPIR Obs: 0%
CYPIR; 560 gai/ha
  Visual Weed Control (%) - 22 DAA CYPIR Obs: 0%
CYPIR; 1120 gai/ha
  Visual Weed Control (%) - 22 DAA CYPIR Obs: 0%

## CN(C(=O)COc1nc2ccccc2s1)c1ccccc1 [Mefenacet]
CYPRO; Table 69, 75 gai/ha
  Visual Weed Control (%) - 21 DAA CYPRO Obs: 0%
CYPRO; Table 69, 150 gai/ha
  Visual Weed Control (%) - 21 DAA CYPRO Obs: 0%

## CCCOCCN(C(=O)CCl)c1c(CC)cccc1CC [Pretilachlor]
CYPRO; Table 70, 25 gai/ha
  Visual Weed Control (%) - 21 DAA CYPRO Obs: 0%
CYPRO; Table 70, 50 gai/ha
  Visual Weed Control (%) - 21 DAA CYPRO Obs: 0%
